Results taken from patent US8372967B2, “Compounds and methods for modulating expression of GCCR” (Isis Pharmaceuticals, Inc., priority 2006, dated 2013).
Strand notation (5' to 3'): a small letter for the sugar, then the base; units joined by * are phosphorothioate-linked, units joined directly phosphodiester-linked; [ ] holds rarer units or linkages, { } end groups; capitals alone tell only the bases. e = 2'-O-(2-methoxyethyl) (MOE); [5mC] = 5-methylcytosine; d = 2'-deoxy (DNA)

Tests used:
[1] = tested on: PCSK9 mRNA; type: cell-based, human; conditions: Hep3B cells, 100 nM, relative to untreated control cells; for % Inhib: 0 = no reduction observed
Protocol: (§1) When cells reached appropriate confluency, they were treated with oligonucleotide using LIPOFECTIN® as described. […] Cells were treated and data were obtained in duplicate or triplicate. […] Cells were harvested 16-24 hours after oligonucleotide treatment.
Prior to quantitative PCR analysis, primer-probe sets specific to the target gene being measured were evaluated for their ability to be “multiplexed” with a GAPDH amplification reaction. After isolation the RNA is subjected to sequential reverse transcriptase (RT) reaction and real-time PCR, both of which are performed in the same well. RT and PCR reagents were obtained from Invitrogen Life Technologies (Carlsbad, Calif.). […] The RT reaction was carried out by incubation for 30 minutes at 48° C. Following a 10 minute incubation at 95° C. to activate the PLATIN 9M® Taq, 40 cycles of a two-step PCR protocol were carried out: 95° C. for 15 seconds (denaturation) followed by 60° C. for 1.5 minutes (annealing/extension).
170 μL of RiboGreen® working reagent (RiboGreen® reagent diluted 1:350 in 10 mM Tris-HCl, 1 mM EDTA, pH 7.5) was pipetted into a 96-well plate containing 30 μL purified cellular RNA. The plate was read in a CytoFluor® 4000 (PE Applied Biosystems) with excitation at 485 nm and emission at 530 nm.
Short antisense compounds targeted to a PCSK9 nucleic acid were tested for their effects on PCSK9 mRNA in vitro. The Isis No, gapmer motif and SEQ ID NO of each short antisense compound are shown again in Table 75. Cultured Hep3B cells were treated with 100 nM of short antisense compound. 5-10-5 MOE gapmers targeted to a PCSK9 nucleic acid were used as positive controls. After the treatment period, RNA was isolated from the cells and PCSK9 mRNA levels were measured by quantitative real-time PCR, as described herein. PCSK9 mRNA levels were adjusted according to total RNA content as measured by RIBOGREEN®. Results are presented in Table 75 as percent inhibition of PCSK9 (% Inhib), relative to untreated control cells.

[2] = tested on: PCSK9 mRNA; assay: Dose-dependent antisense inhibition of PCSK9 in Hep3B cells, EC50 (Table 76); type: cell-based, human
Protocol: as §1
Short antisense compounds targeted to a PCSK9 nucleic acid were tested in a dose response experiment Hep3B cells. After the treatment period, RNA was isolated from the cells and PCSK9 mRNA levels were measured by quantitative real-time PCR, as described herein. PCSK9 mRNA levels were normalized to cyclophilin mRNA levels, as measured by real-time PCR using a cyclophilin-specific primer probe set. Results are presented as percent inhibition of PCSK9, relative to untreated control cells. […] As illustrated in the following table, PCSK9 mRNA levels were reduced in a dose-dependent manner.

[3] = Triglyceride, cholesterol and glucose levels, pre-bleed and post-bleed, GCGR study (Table 34); type: in vivo, mouse; conditions: C57/BL6 mice, 48 hours after single i.p. dose
Protocol: Eight-week old male C57/BL6 mice (Jackson Laboratory, Bar Harbor, Me.) were administered a single dose of GCGR oligonucleotide by intraperitoneal injection at a concentration of […]. Each dose group consisted of four animals. Shown in Table 31 are the sequences, motifs and conjugates of the GCGR antisense compounds used in this study. Bolded residues indicate 2′-O-methoxyethyl (2′-MOE) moieties. All compounds comprise phosphorothioate internucleoside linkages throughout and each cytosine is replaced with 5-methylcytosine. ISIS 386626, ISIS 386627 and ISIS 386628 further comprise a C16 conjugate group attached to the 2′-O position of the sugar via a diamide linkage (2′-OCH2C(═O)N(H)(CH2)4N(H)C(═O)—(CH2)15CH3). GCGR antisense compounds target published GCGR sequences, including Genbank® Accession No. BC031885.1 (SEQ ID NO: 7).
Mice were sacrificed 48 hours following injection to determine serum transaminase levels (Table 32); liver, white adipose tissue (WAT), spleen and kidney weight (Table 33); cholesterol, triglyceride and glucose levels (Table 34); GCGR mRNA levels (Tables 35-41); and full-length and total oligonucleotide concentration in liver and kidney (Table 42). Endpoints were assessed using methods described herein and well known to those of ordinary skill in the art. Data is included from a pre-treatment bleed (Pre-Bleed) and post-treatment bleed (Post-Bleed).

Row | Substance | % Inhibition Range [1] | % Inhib [1] | % Inhibition ([2]; 5 nM) | % Inhibition ([2]; 10 nM) | % Inhibition ([2]; 20 nM) | % Inhibition ([2]; 40 nM) | % Inhibition ([2]; 80 nM) | % Inhibition ([2]; 160 nM) | Glucose levels (post-bleed) [3]
1 | 400308 (antisense e[5mC]*e[5mC]*dG*dG*d[5mC]*d[5mC]*dG*d[5mC]*dT*dG*dA*d[5mC]*e[5mC]*eA) [compound 400308] | 50-60% | 55% | 31% | 10% | 26% | 40% | 77% | 86% | –
2 | 400309 (antisense e[5mC]*e[5mC]*d[5mC]*dG*dG*d[5mC]*d[5mC]*dG*d[5mC]*dT*dG*dA*e[5mC]*e[5mC]) [compound 400309] | 40-50% | 44% | 49% | 23% | 38% | 12% | 72% | 78% | –
3 | 400327 (antisense eG*eT*d[5mC]*d[5mC]*d[5mC]*d[5mC]*dA*dA*dA*dG*dT*d[5mC]*e[5mC]*e[5mC]) [compound 400327] | 30-40% | 36% | 5% | 37% | 23% | 49% | 43% | 55% | –
4 | 400330 (antisense e[5mC]*e[5mC]*dA*d[5mC]*dG*dT*dG*dG*dG*d[5mC]*dA*dG*e[5mC]*eA) [compound 400330] | 40-50% | 43% | 8% | 32% | 40% | 69% | 82% | 71% | –
5 | 400331 (antisense eG*e[5mC]*d[5mC]*dA*d[5mC]*dG*dT*dG*dG*dG*d[5mC]*dA*eG*e[5mC]) [compound 400331] | 30-40% | 35% | 29% | 40% | 47% | 63% | 75% | 82% | –
6 | 400352 (antisense e[5mC]*eA*d[5mC]*d[5mC]*d[5mC]*dT*d[5mC]*dA*d[5mC]*d[5mC]*d[5mC]*d[5mC]*e[5mC]*eA) [compound 400352] | 20-30% | 29% | 7% | 16% | 40% | 44% | 63% | 64% | –
7 | 400353 (antisense eA*e[5mC]*dA*d[5mC]*d[5mC]*d[5mC]*dT*d[5mC]*dA*d[5mC]*d[5mC]*d[5mC]*e[5mC]*e[5mC]) [compound 400353] | 10-20% | 19% | 15% | 27% | 23% | 43% | 54% | 48% | –
8 | ISIS 386628: GCGR short antisense compound with C16 conjugate group at 2′-O via diamide linkage (TGTCTTGCTGCTTT; chemistry not fully specified) | – | – | – | – | – | – | – | – | decrease in post-bleed glucose levels
